Results from paper PMC9120017, “Inhibition mechanism of the chloride channel TMEM16A by the pore blocker 1PBC” (Nature Communications, 2022).
Like-named read-outs stand apart in the source and are kept apart here.

Molecular target: T1, mouse TMEM16A mutant R535A (Mus musculus, UniProt Q8BHY3, R535A)
T1 construct: expressed in transfected cells; host or cells: HEK293T
T1 sequence (Q8BHY3 1-960 R535A): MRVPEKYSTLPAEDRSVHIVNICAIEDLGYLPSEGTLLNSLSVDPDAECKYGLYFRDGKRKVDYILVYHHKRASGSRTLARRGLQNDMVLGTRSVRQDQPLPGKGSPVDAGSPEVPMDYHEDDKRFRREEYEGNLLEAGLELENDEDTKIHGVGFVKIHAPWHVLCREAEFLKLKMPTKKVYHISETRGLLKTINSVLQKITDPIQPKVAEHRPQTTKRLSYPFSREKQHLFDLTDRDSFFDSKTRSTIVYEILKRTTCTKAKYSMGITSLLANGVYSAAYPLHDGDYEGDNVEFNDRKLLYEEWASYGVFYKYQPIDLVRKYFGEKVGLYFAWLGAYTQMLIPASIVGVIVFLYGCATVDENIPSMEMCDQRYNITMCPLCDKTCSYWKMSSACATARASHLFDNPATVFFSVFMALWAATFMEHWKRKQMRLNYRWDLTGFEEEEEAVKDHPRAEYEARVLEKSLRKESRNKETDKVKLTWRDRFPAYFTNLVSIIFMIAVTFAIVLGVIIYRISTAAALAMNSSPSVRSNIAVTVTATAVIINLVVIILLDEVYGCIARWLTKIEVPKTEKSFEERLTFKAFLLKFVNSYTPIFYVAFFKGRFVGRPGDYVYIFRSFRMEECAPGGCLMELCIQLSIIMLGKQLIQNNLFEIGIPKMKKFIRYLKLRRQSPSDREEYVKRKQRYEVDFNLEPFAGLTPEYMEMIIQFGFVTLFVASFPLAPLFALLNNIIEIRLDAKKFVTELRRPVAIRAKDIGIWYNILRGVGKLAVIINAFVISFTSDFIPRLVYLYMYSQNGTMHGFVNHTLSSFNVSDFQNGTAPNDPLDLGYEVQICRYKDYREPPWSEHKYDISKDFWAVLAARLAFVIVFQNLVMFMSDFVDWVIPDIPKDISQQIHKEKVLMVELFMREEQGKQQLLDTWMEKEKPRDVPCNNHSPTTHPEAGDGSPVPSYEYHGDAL
Experiment: Inside-out patch recording of 1PBC block, mutant R535A
Assay type: cell-based
Conditions: for remaining activity at 100 µM: 100 µM 1PBC
Method: HEK293T cells (ATCC CRL-1573) were maintained in Dulbecco’s modified Eagle’s medium (DMEM; Sigma-Aldrich) supplemented with 10 U ml^−1 penicillin, 0.1 mg ml^−1 streptomycin (Sigma-Aldrich), 2 mM L-glutamine (Sigma-Aldrich), and 10% FBS (Sigma-Aldrich) in a humidified atmosphere containing 5% CO2 at 37 °C. HEK293S GnTI^− cells (ATCC CRL-3022) were maintained in HyClone HyCell TransFx-H medium (GE Healthcare) supplemented with 10 U ml^−1 penicillin, 0.1 mg ml^−1 streptomycin, 4 mM L-glutamine, 0.15% poloxamer 188 (Sigma-Aldrich), and 1% FBS in an atmosphere containing 5% CO2 at 185 rpm at 37 °C. The ac splice variant of mouse TMEM16A (UniProt ID: Q8BHY3), mouse TMEM16B (UniProt ID: Q8CFW1), or mouse TMEM16F (UniProt ID: Q6P9J9) bearing a 3C cleavage site, a Venus YFP, a Myc tag, and a Streptavidin-binding peptide (SBP) downstream of the open reading frame in a modified pcDNA3.1 vector (Invitrogen) were used as described previously[21],[31]. Mutations were introduced using a modified QuikChange method[58] and were verified by sequencing.
HEK293T cells were transfected with 3–4 μg DNA per 6 cm Petri dish using the calcium phosphate co-precipitation method and were used within 24–96 h after transfection. Recordings were performed on inside-out patches excised from HEK293T cells expressing the construct of interest. Patch pipettes were pulled from borosilicate glass capillaries (O.D. 1.5 mm, I.D. 0.86 mm, Sutter Instrument) and were fire-polished with a microforge (Narishige) before use. Pipette resistance was typically 3–8 MΩ when filled with the recording solutions detailed below. Seal resistance was typically 4 GΩ or higher. Voltage-clamp recordings were made using Axopatch 200B, Digidata 1550, and Clampex 10.7 (Molecular Devices). Analog signals were filtered with the in-built 4-pole Bessel filter at 10 kHz and were digitized at 20 kHz. Solution exchange was achieved using a gravity-fed system through a theta glass pipette mounted on an ultra-fast piezo-driven stepper (Siskiyou). […] All recordings were performed at 20 °C.
A symmetrical ionic condition was used throughout. Stock solution with Ca^2+-EGTA contained 150 mM NaCl, 5.99 mM Ca(OH)2, 5 mM EGTA, and 10 mM HEPES at pH 7.40. Stock solution with EGTA contained 150 mM NaCl, 5 mM EGTA, and 10 mM HEPES at pH 7.40. Free Ca^2+ concentrations were adjusted by mixing the stock solutions at the required ratios calculated using the WEBMAXC program (http://web.stanford.edu/~cpatton/webmaxcS.htm). Patch pipettes were filled with the stock solution with Ca^2+-EGTA, which has a free Ca^2+ concentration of 1 mM. 1PBC (ChemBridge) stock was reconstituted in anhydrous DMSO (Sigma-Aldrich) at 100 mM and stored at −20 °C. Working solutions with 1PBC were prepared by serial dilution. Unless otherwise stated, experiments were performed at a saturating Ca^2+ concentration as shown in Supplementary Table 1 and the primary data were corrected for current rundown as described previously[21],[25].
Concentration-response relations, obtained from the ratio of the I-V plots before and after the application of the blocker, were fitted to the Hill equation,1 I/Imax=1/1+IC50/[blocker]^h where I/Imax is the normalized current responses, IC50 defines the concentration at which inhibition is at its half-maximum, and h is the Hill coefficient.

IC50 (0 mV, 2 µM Ca2+): 11.9 µM
remaining activity at 3 µM (3 µM 1PBC, +80 mV, saturating Ca2+ (2 µM), read-out: I/Imax): 67.6%
remaining activity at 3 µM (3 µM 1PBC, -80 mV, saturating Ca2+ (2 µM), read-out: I/Imax): 91.3%
remaining activity at 10 µM (10 µM 1PBC, +80 mV, saturating Ca2+ (2 µM), read-out: I/Imax): 36.9%
remaining activity at 10 µM (10 µM 1PBC, -80 mV, saturating Ca2+ (2 µM), read-out: I/Imax): 70.8%
remaining activity at 30 µM (30 µM 1PBC, +80 mV, saturating Ca2+ (2 µM), read-out: I/Imax): 16.6%
remaining activity at 30 µM (30 µM 1PBC, -80 mV, saturating Ca2+ (2 µM), read-out: I/Imax): 46.3%
remaining activity at 100 µM (+80 mV, saturating Ca2+ (2 µM), read-out: I/Imax): 5.26%
remaining activity at 100 µM (-80 mV, saturating Ca2+ (2 µM), read-out: I/Imax): 21.3%
remaining activity at 3 µM (1PBC 3, 0 mV, read-out: fraction of unblocked current): 80.7%
remaining activity at 3 µM (1PBC 3, 20 mV, read-out: fraction of unblocked current): 76.3%
remaining activity at 3 µM (1PBC 3, 40 mV, read-out: fraction of unblocked current): 72.5%
remaining activity at 3 µM (1PBC 3, 60 mV, read-out: fraction of unblocked current): 69.3%
remaining activity at 3 µM (1PBC 3, 80 mV, read-out: fraction of unblocked current): 67.6%
remaining activity at 3 µM (1PBC 3, 100 mV, read-out: fraction of unblocked current): 65.8%
remaining activity at 3 µM (1PBC 3, 120 mV, read-out: fraction of unblocked current): 66%
remaining activity at 3 µM (1PBC 3, 140 mV, read-out: fraction of unblocked current): 66.6%
remaining activity at 3 µM (1PBC 3, -20 mV, read-out: fraction of unblocked current): 85.2%
remaining activity at 3 µM (1PBC 3, -40 mV, read-out: fraction of unblocked current): 87.7%
remaining activity at 3 µM (1PBC 3, -60 mV, read-out: fraction of unblocked current): 89.5%
remaining activity at 3 µM (1PBC 3, -80 mV, read-out: fraction of unblocked current): 91.3%
remaining activity at 3 µM (1PBC 3, -100 mV, read-out: fraction of unblocked current): 91.1%
remaining activity at 3 µM (1PBC 3, -120 mV, read-out: fraction of unblocked current): 92.2%
remaining activity at 3 µM (1PBC 3, -140 mV, read-out: fraction of unblocked current): 91.6%
remaining activity at 10 µM (1PBC 10, 0 mV, read-out: fraction of unblocked current): 53.9%
remaining activity at 10 µM (1PBC 10, 20 mV, read-out: fraction of unblocked current): 48.3%
remaining activity at 10 µM (1PBC 10, 40 mV, read-out: fraction of unblocked current): 43.7%
remaining activity at 10 µM (1PBC 10, 60 mV, read-out: fraction of unblocked current): 39.8%
remaining activity at 10 µM (1PBC 10, 80 mV, read-out: fraction of unblocked current): 36.9%
remaining activity at 10 µM (1PBC 10, 100 mV, read-out: fraction of unblocked current): 34.6%
remaining activity at 10 µM (1PBC 10, 120 mV, read-out: fraction of unblocked current): 34.7%
remaining activity at 10 µM (1PBC 10, 140 mV, read-out: fraction of unblocked current): 35.9%
remaining activity at 10 µM (1PBC 10, -20 mV, read-out: fraction of unblocked current): 59.6%
remaining activity at 10 µM (1PBC 10, -40 mV, read-out: fraction of unblocked current): 63.3%
remaining activity at 10 µM (1PBC 10, -60 mV, read-out: fraction of unblocked current): 67%
remaining activity at 10 µM (1PBC 10, -80 mV, read-out: fraction of unblocked current): 70.8%
remaining activity at 10 µM (1PBC 10, -100 mV, read-out: fraction of unblocked current): 73%
remaining activity at 10 µM (1PBC 10, -120 mV, read-out: fraction of unblocked current): 74.7%
remaining activity at 10 µM (1PBC 10, -140 mV, read-out: fraction of unblocked current): 75.4%
remaining activity at 30 µM (1PBC 30, 0 mV, read-out: fraction of unblocked current): 28.6%
remaining activity at 30 µM (1PBC 30, 20 mV, read-out: fraction of unblocked current): 24.4%
remaining activity at 30 µM (1PBC 30, 40 mV, read-out: fraction of unblocked current): 20.9%
remaining activity at 30 µM (1PBC 30, 60 mV, read-out: fraction of unblocked current): 18.1%
remaining activity at 30 µM (1PBC 30, 80 mV, read-out: fraction of unblocked current): 16.6%
remaining activity at 30 µM (1PBC 30, 100 mV, read-out: fraction of unblocked current): 15.4%
remaining activity at 30 µM (1PBC 30, 120 mV, read-out: fraction of unblocked current): 15.7%
remaining activity at 30 µM (1PBC 30, 140 mV, read-out: fraction of unblocked current): 16.3%
remaining activity at 30 µM (1PBC 30, -20 mV, read-out: fraction of unblocked current): 32.7%
remaining activity at 30 µM (1PBC 30, -40 mV, read-out: fraction of unblocked current): 36.9%
SMILES: N#Cc1c(C(F)(F)F)cc(O)n2c1nc1ccccc12 [1PBC]
